Common to all, as to assay: MIC, agar dilution test (Isosensitest medium), Denley multipoint inoculator
Type in all cases: cell-based
In general terms: Agar dilution tests growth on a series of plates holding different concentrations.

One test concerns E. coli A 261. To be noted: Escherichia coli, A261. The source says: (§1) Agar dilution test (Isosensitest medium)
(§2) Denley multipoint inoculator

A further test has as its system E. coli Neumann. To be noted: Escherichia coli.
Description: as §1, §2

Another test concerns E. coli T 7. The note with it: Escherichia coli, T7.
Description: as §1, §2

Another test relates to Klebsiella 8085.
Description: as §1, §2

Values after ≈ are worked out from the molar mass of the structure shown.

For orientation: MIC means the lowest concentration found to suppress growth.

In the case of `Cc1c(F)cc2c(=O)c(C(=O)O)cn3c2c1OCC3` [Example 61], the MIC in the test with E. coli A 261 came out at 0.5 µg/mL (≈ 1.9 µM); against E. coli Neumann, 0.125 µg/mL (≈ 0.475 µM); with E. coli T 7, 0.5 µg/mL (≈ 1.9 µM); in the test on Klebsiella 8085 it was 0.125 µg/mL (≈ 0.475 µM).

Source of the values: patent US4859773A, “Preparation of 1,8-bridged 4-quinoline-3-carboxylic acids” (Bayer Aktiengesellschaft, priority 1985, dated 1989).
